Reference: the supplement of paper PMC11061612

What was measured:
AZD2811 = compound: CCN(CCO)CCCOc1ccc2c(Nc3cc(CC(=O)Nc4cccc(F)c4)[nH]n3)ncnc2c1 [AZD2811]; conditions: max 1 µM
In short: (§1)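 Cancer cell lines in 1536-well plates (7.5 μl DMEM/F12 or RPMI, 10% FBS) were held 24 hours at 37°C and 5% CO2 and then dosed for 72 hours at a final DMSO of typically 0.2%. Viability was taken from CellTiter-Glo 2.0 luminescence, scaled between blank-well and DMSO-well means. Curves were fitted as two-parameter logistic models with a non-linear mixed effects model, from which the single-agent IC50 was taken.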

AZD5991 = compound: Cc1c2c(nn1C)CSCc1cc(n(C)n1)CSc1cc(c3ccccc3c1)OCCCc1c(C(=O)O)n(C)c3c-2c(Cl)ccc13 [AZD5991]; conditions: max 1 µM
In short: as §1

Gefitinib = compound: COc1cc2ncnc(Nc3ccc(F)c(Cl)c3)c2cc1OCCCN1CCOCC1 [Gefitinib]; conditions: max 10 µM
In short: as §1

AZD5153 = compound: COc1nnc2ccc(N3CCC(c4ccc(OCCN5CCN(C)C(=O)[C@H]5C)cc4)CC3)nn12 [AZD5153]; conditions: max 1 µM
In short: as §1

SN-38 = compound: CCc1c2c(nc3ccc(O)cc13)-c1cc3c(c(=O)n1C2)COC(=O)[C@]3(O)CC [SN-38]; conditions: max 0.3 µM
In short: as §1

Lapatinib = compound: CS(=O)(=O)CCNCc1ccc(-c2ccc3ncnc(Nc4ccc(OCc5cccc(F)c5)c(Cl)c4)c3c2)o1 [Lapatinib]; conditions: max 10 µM
In short: as §1

Prexasertib = compound: COc1cccc(OCCCN)c1-c1cc(Nc2cnc(C#N)cn2)n[nH]1 [Prexasertib]; conditions: max 1 µM
In short: as §1

Doxorubicin = compound: COc1cccc2c1C(=O)c1c(O)c3c(c(O)c1C2=O)C[C@@](O)(C(=O)CO)C[C@@H]3O[C@H]1C[C@H](N)[C@H](O)[C@H](C)O1 [Doxorubicin]; conditions: max 1 µM
In short: as §1

AZD7648 = compound: Cc1cc2ncnn2cc1Nc1ncc2c(n1)n(C1CCOCC1)c(=O)n2C [AZD7648]; conditions: max 10 µM
In short: as §1

Venetoclax = compound: CC1(C)CCC(CN2CCN(c3ccc(C(=O)NS(=O)(=O)c4ccc(NCC5CCOCC5)c([N+](=O)[O-])c4)c(Oc4cnc5[nH]ccc5c4)c3)CC2)=C(c2ccc(Cl)cc2)C1 [Venetoclax]; conditions: max 1 µM
In short: as §1

Dasatinib = compound: CC1=C(C(=CC=C1)Cl)NC(=O)C2=CN=C(S2)NC3=CC(=NC(=N3)C)N4CCN(CC4)CCO [Dasatinib]; conditions: max 2 µM
In short: as §1

Crizotinib = compound: C[C@@H](Oc1cc(-c2cnn(C3CCNCC3)c2)cnc1N)c1c(Cl)ccc(F)c1Cl [Crizotinib]; conditions: max 10 µM
In short: as §1

Capivasertib = compound: C1CN(CCC1(C(=O)N[C@@H](CCO)C2=CC=C(C=C2)Cl)N)C3=NC=NC4=C3C=CN4 [Capivasertib]; conditions: max 10 µM
In short: as §1

AZD6738 = compound: C[C@@H]1COCCN1C2=NC(=NC(=C2)C3(CC3)[S@](=N)(=O)C)C4=C5C=CNC5=NC=C4 [AZD6738]; conditions: max 10 µM
In short: as §1

Taselisib = compound: Cc1nc(-c2cn3c(n2)-c2ccc(-c4cnn(C(C)(C)C(N)=O)c4)cc2OCC3)n(C(C)C)n1 [Taselisib]; conditions: max 10 µM
In short: as §1

AZD4320 = compound: CN(CC[C@H](CSC1=CC=CC=C1)NC2=C(C=C(C=C2)S(=O)(=O)NC(=O)C3=CC=C(C=C3)N4CCC(CC4)[C@H](C5=CC=CC=C5C6=CC=C(C=C6)Cl)O)S(=O)(=O)C(F)(F)F)CCO [AZD4320]; conditions: max 1 µM
In short: as §1

AZD0156 = compound: CN(C)CCCOc1ccc(-c2ccc3ncc4c(c3c2)n(C2CCOCC2)c(=O)n4C)cn1 [AZD0156]; conditions: max 3 µM
In short: as §1

Savolitinib = compound: C[C@@H](c1ccc2nccn2c1)n1nnc2ncc(-c3cnn(C)c3)nc21 [Savolitinib]; conditions: max 1 µM
In short: as §1

Selumetinib = compound: Cn1cnc2c(F)c(Nc3ccc(Br)cc3Cl)c(C(=O)NOCCO)cc21 [Selumetinib]; conditions: max 10 µM
In short: as §1

Alisertib = compound: COc1cc(Nc2ncc3c(n2)-c2ccc(Cl)cc2C(c2c(F)cccc2OC)=NC3)ccc1C(=O)O [Alisertib]; conditions: max 10 µM
In short: as §1

SG3199 = compound: CC1=CN2[C@@H](C1)C=NC3=CC(=C(C=C3C2=O)OC)OCCCCCOC4=C(C=C5C(=C4)N=C[C@@H]6CC(=CN6C5=O)C)OC [SG3199]; conditions: max 0.001 µM
In short: as §1

AZD1390 = compound: CC(C)n1c(=O)n(C)c2cnc3cc(F)c(-c4ccc(OCCCN5CCCCC5)nc4)cc3c21 [AZD1390]; conditions: max 0.3 µM
In short: as §1

Trametinib = compound: CC(=O)Nc1cccc(-n2c(=O)n(C3CC3)c(=O)c3c(Nc4ccc(I)cc4F)n(C)c(=O)c(C)c32)c1 [Trametinib]; conditions: max 1 µM
In short: as §1

Palbociclib = compound: CC(=O)c1c(C)c2cnc(Nc3ccc(N4CCNCC4)cn3)nc2n(C2CCCC2)c1=O [Palbociclib]; conditions: max 10 µM
In short: as §1

AZD8186 = compound: C[C@@H](Nc1cc(F)cc(F)c1)c1cc(C(=O)N(C)C)cc2c(=O)cc(N3CCOCC3)oc12 [AZD8186]; conditions: max 3 µM
In short: as §1

AZD1775 = compound: C=CCn1c(=O)c2cnc(Nc3ccc(N4CCN(C)CC4)cc3)nc2n1-c1cccc(C(C)(C)O)n1 [AZD1775]; conditions: max 3 µM
In short: as §1

Olaparib = compound: O=C(c1cc(Cc2n[nH]c(=O)c3ccccc23)ccc1F)N1CCN(C(=O)C2CC2)CC1 [Olaparib]; conditions: max 10 µM
In short: as §1

Cell Line	IC50, cell viability 72 h (AZD2811) [µM]	IC50, cell viability 72 h (AZD5991) [µM]	IC50, cell viability 72 h (Gefitinib) [µM]	IC50, cell viability 72 h (AZD5153) [µM]	IC50, cell viability 72 h (SN-38) [µM]	IC50, cell viability 72 h (Lapatinib) [µM]	IC50, cell viability 72 h (Prexasertib) [µM]	IC50, cell viability 72 h (Doxorubicin) [µM]	IC50, cell viability 72 h (AZD7648) [µM]	IC50, cell viability 72 h (Venetoclax) [µM]	IC50, cell viability 72 h (Dasatinib) [µM]	IC50, cell viability 72 h (Crizotinib) [µM]	IC50, cell viability 72 h (Capivasertib) [µM]	IC50, cell viability 72 h (AZD6738) [µM]	IC50, cell viability 72 h (Taselisib) [µM]	IC50, cell viability 72 h (AZD4320) [µM]	IC50, cell viability 72 h (AZD0156) [µM]	IC50, cell viability 72 h (Savolitinib) [µM]	IC50, cell viability 72 h (Selumetinib) [µM]	IC50, cell viability 72 h (Alisertib) [µM]	IC50, cell viability 72 h (SG3199) [µM]	IC50, cell viability 72 h (AZD1390) [µM]	IC50, cell viability 72 h (Trametinib) [µM]	IC50, cell viability 72 h (Palbociclib) [µM]	IC50, cell viability 72 h (AZD8186) [µM]	IC50, cell viability 72 h (AZD1775) [µM]	IC50, cell viability 72 h (Olaparib) [µM]
NCI-H1781 (Lung Adenocarcinoma)	0.583	> 1	5.37	> 1	0.00506	8.92	0.709	0.107	> 10	> 1	> 2	> 10	7.07	> 10	2.11	> 1	> 3	> 1	> 10	1.77	> 0.001	> 0.3	> 1	> 10	> 3	0.839	> 10
NCI-H1793 (Lung Adenocarcinoma)	> 1	> 1	> 10	> 1	> 0.3	> 10	0.938	> 1	> 10	> 1	1.1	> 10	> 10	> 10	> 10	> 1	> 3	> 1	> 10	> 10	> 0.001	> 0.3	> 1	> 10	> 3	> 3	> 10
NCI-H2369 (Mesothelioma)	> 1	> 1	> 10	> 1	> 0.3	> 10	> 1	> 1	> 10	> 1	> 2	> 10	> 10	> 10	> 10	> 1	> 3	> 1	> 10	> 10	> 0.001	> 0.3	> 1	> 10	> 3	> 3	> 10
